This is an account of results in patent US10670605B2, “Cysteine reactive probes and uses thereof” (The Scripps Research Institute, priority 2015, dated 2020).

Structures are written as SMILES.

What all share (experiment): Competitive isoTOP-ABPP, cell lysates
What all share (format): binding

In experiment [1] the target is USP16 C205 (Q9Y5T5) (Homo sapiens, UniProt Q9Y5T5). The note with it: for isoTOP-ABPP reactivity ratio, Q9Y5T5_C205 / isoTOP-ABPP reactivity profile ratio, Q9Y5T5_C205: 500 μm.
Chain of USP16 C205 (Q9Y5T5) (Q9Y5T5 whole entry): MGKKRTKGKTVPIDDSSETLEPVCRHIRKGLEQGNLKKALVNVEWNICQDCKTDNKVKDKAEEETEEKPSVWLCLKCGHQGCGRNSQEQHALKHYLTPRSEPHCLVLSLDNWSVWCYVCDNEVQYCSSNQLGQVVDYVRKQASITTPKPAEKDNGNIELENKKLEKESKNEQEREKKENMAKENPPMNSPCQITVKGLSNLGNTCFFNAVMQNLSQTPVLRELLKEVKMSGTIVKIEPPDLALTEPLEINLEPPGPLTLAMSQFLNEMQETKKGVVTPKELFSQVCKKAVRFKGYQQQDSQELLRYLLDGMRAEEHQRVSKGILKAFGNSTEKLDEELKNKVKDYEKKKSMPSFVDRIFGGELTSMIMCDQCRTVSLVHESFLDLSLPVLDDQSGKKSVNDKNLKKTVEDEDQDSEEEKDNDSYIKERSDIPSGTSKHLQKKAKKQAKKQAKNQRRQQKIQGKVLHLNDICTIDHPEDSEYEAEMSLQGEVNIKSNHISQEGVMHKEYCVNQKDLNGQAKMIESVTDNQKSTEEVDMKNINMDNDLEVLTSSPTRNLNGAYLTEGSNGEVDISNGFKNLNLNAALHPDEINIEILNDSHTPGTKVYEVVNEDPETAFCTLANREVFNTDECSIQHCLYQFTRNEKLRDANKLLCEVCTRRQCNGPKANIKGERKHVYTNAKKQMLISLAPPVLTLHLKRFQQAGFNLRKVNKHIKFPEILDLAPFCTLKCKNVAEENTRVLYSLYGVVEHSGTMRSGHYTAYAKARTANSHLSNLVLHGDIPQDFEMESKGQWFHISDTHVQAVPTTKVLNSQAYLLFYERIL
In experiment [2] the target is CDK5 C157 (Q00535) (Homo sapiens, UniProt Q00535). The note with it: for isoTOP-ABPP reactivity ratio, Q00535_C157 / isoTOP-ABPP reactivity profile ratio, Q00535_C157: 500 μm.
Chain of CDK5 C157 (Q00535) (Q00535 whole entry): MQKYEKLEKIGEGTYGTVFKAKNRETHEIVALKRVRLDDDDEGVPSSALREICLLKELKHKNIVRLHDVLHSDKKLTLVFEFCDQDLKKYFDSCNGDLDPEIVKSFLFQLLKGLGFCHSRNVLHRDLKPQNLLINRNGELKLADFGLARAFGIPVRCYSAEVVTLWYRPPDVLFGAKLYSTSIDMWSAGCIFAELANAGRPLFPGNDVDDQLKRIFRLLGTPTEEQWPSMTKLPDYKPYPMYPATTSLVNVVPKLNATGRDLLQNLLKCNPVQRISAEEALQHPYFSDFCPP
Experiment [3] addresses T1, USP48 C39 (Q86UV5) (Homo sapiens, UniProt Q86UV5).
T1 sequence (Q86UV5 1-1035): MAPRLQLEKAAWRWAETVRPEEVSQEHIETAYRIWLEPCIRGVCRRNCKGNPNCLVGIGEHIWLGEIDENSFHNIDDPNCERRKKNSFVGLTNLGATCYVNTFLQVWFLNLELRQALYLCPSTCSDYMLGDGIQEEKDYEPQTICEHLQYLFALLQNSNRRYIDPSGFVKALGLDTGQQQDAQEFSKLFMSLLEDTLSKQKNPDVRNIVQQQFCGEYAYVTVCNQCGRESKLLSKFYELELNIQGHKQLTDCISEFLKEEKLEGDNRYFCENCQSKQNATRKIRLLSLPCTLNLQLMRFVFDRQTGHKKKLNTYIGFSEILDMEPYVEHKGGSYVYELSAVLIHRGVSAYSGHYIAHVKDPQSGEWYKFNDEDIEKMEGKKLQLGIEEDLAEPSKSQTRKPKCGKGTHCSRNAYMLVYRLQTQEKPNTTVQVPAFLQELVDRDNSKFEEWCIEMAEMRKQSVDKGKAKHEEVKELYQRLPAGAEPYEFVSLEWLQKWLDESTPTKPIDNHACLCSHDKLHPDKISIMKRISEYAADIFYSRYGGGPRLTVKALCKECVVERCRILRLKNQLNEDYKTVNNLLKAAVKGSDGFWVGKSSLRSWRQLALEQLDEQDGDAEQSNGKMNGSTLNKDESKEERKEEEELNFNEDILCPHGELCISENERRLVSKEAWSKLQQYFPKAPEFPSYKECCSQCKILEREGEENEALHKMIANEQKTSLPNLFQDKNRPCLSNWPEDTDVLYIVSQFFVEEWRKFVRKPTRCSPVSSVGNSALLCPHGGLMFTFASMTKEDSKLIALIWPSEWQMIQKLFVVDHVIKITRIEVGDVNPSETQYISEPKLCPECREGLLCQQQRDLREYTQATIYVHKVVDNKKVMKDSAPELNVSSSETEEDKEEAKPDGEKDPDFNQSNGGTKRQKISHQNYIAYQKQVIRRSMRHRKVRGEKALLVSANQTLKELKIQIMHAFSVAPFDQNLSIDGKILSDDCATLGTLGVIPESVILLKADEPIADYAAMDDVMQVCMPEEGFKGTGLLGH
The note with it: for isoTOP-ABPP reactivity ratio, Q86UV5_C39 / isoTOP-ABPP reactivity profile ratio, Q86UV5_C39: 500 μm.

Experiment [4] addresses T2, NR3C1 C302 (P04150) (Homo sapiens, UniProt P04150).
T2 sequence (P04150 1-777): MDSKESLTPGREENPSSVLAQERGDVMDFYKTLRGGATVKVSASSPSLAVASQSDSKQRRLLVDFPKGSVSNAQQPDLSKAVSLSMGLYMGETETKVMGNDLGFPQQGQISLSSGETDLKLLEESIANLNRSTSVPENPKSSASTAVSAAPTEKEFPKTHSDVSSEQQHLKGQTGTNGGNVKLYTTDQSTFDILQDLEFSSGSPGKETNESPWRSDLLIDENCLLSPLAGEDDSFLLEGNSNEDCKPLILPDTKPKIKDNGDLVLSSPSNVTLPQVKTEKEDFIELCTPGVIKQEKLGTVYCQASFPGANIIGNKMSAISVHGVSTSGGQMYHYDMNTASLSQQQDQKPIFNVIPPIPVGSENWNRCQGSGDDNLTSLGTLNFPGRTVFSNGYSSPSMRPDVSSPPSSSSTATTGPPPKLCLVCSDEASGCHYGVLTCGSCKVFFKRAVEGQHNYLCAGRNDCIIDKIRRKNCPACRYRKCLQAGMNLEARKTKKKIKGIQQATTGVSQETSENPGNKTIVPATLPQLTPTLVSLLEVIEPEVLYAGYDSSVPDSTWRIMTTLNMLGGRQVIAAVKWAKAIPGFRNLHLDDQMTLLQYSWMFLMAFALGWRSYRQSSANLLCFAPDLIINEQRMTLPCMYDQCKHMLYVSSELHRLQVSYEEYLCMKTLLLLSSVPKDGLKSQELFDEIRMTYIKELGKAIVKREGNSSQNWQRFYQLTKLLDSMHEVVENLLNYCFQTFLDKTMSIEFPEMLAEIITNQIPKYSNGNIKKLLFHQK
The note with it: 500 μm.

As to `COc1ccccc1OCCNC(=O)CCl` [compound 28], the “isoTOP-ABPP ratio (reactivity profile), Q9Y5T5_C205” value in experiment [1] (500 μm in-vitro ramos) is on record as 1.6. In addition, the “isoTOP-ABPP ratio (reactivity profile), Q00535_C157” value stood at 1.0 in experiment [2] (500 μm in-vitro ramos) and 0.9 in experiment [2] (500 μm in-vitro ramos_231).
Turning to `O=C(CCl)N1CCN(CC(=O)N2CCOCC2)CC1` [compound 29], in experiment [3] (500 μm in-vitro ramos_231), the “isoTOP-ABPP ratio (reactivity profile), Q86UV5_C39” value came out at 1.2.
Regarding `C=CC(=O)N(Cc1cccnc1)c1cc(C(F)(F)F)cc(C(F)(F)F)c1` [compound 31], the “isoTOP-ABPP reactivity ratio, Q00535_C157” value in experiment [2] (in-vitro_ramos) is 1.1.
As to `CC(C)(C)c1cc(NC(=O)CCl)on1` [compound 32], the “isoTOP-ABPP reactivity ratio, Q00535_C157” value in experiment [2] (in-vitro_ramos) and in experiment [2] (in-vitro_ramos_231) was 1.7 throughout.
On to `O=C(CCl)N(Cc1ccc(F)cc1)C12CC3CC(CC(C3)C1)C2` [compound 34], for which the “isoTOP-ABPP reactivity ratio, Q00535_C157” value in experiment [2] (in-vitro_ramos_231) turned out to be 0.7.
For `O=C(CCl)Nc1ccccc1C1CCCCCC1` [compound 35], the “isoTOP-ABPP reactivity ratio, P04150_C302” value in experiment [4] (in-vitro_ramos) is 0.9. The “isoTOP-ABPP reactivity ratio, Q86UV5_C39” value in experiment [3] (in-vitro_ramos) came to 1.0.
Take `C=CC(=O)N1CCC(c2noc3ccc(F)cc23)CC1` [compound 37]: the “isoTOP-ABPP reactivity ratio, P04150_C302” value in experiment [4] (in-vitro_ramos) is 0.9. The “isoTOP-ABPP reactivity ratio, Q86UV5_C39” value in experiment [3] (in-vitro_ramos) is given as 0.7.
Consider `C=CC(=O)Nc1cc(F)c(N2CCN(C(=O)OC(C)(C)C)CC2)c(F)c1` [compound 38], for which the “isoTOP-ABPP reactivity ratio, Q9Y5T5_C205” value in experiment [1] (in-vitro_ramos) stood at 1.9. Also, in experiment [3] (in-vitro_ramos_231), the “isoTOP-ABPP reactivity ratio, Q86UV5_C39” value is 3.7. Besides, the “isoTOP-ABPP reactivity ratio, Q00535_C157” value in experiment [2] (in-vitro_ramos_231) is 0.9.
For the compound `C=CC(=O)Nc1cc(C)c(Br)cc1C` [compound 40], the “isoTOP-ABPP reactivity ratio, Q9Y5T5_C205” value in experiment [1] (in-vitro_ramos) came to 0.9. Further, the “isoTOP-ABPP reactivity ratio, Q86UV5_C39” value in experiment [3] (in-vitro_ramos) was 1.6.
Consider `Cc1ccc(C=C(C#N)C(=O)NCCN2CCOCC2)cc1` [compound 41], for which the “isoTOP-ABPP reactivity ratio, Q9Y5T5_C205” value in experiment [1] (in-vitro_ramos_231) was 0.8. Further, the “isoTOP-ABPP reactivity ratio, Q00535_C157” value in experiment [2] (in-vitro_ramos_231) turned out to be 1.5.
Consider `N#CC(=Cc1ccc(-c2ccccc2Cl)o1)C(N)=O` [compound 42], for which, in experiment [1] (in-vitro_ramos), the “isoTOP-ABPP reactivity profile ratio, Q9Y5T5_C205” value is on record as 1.5.
In the case of `COc1cc(NC(=O)CCl)cc(OC)c1` [compound 43], the “isoTOP-ABPP reactivity profile ratio, P04150_C302” value in experiment [4] (in-vitro_ramos_231) is given as 1.5. Also, in experiment [3] (in-vitro_ramos_231), the “isoTOP-ABPP reactivity profile ratio, Q86UV5_C39” value is on record as 1.5. In addition, in experiment [2] (in-vitro_ramos), the “isoTOP-ABPP reactivity profile ratio, Q00535_C157” value came to 1.2.
For `C=CC(=O)N(c1ccccc1)C1CCCCC1` [compound 46], the “isoTOP-ABPP reactivity profile ratio, Q9Y5T5_C205” value in experiment [1] (in-vitro_ramos_231) stood at 1.0.
As for `O=C(CCl)Nc1cccc2ncccc12` [compound 51], the results for the “isoTOP-ABPP reactivity profile ratio, Q9Y5T5_C205” value in experiment [1] (in-vitro_ramos) and in experiment [1] (in-vitro_ramos_231) were 3.2 and 1.7, respectively. In addition, the “isoTOP-ABPP reactivity profile ratio, Q86UV5_C39” value in experiment [3] (in-vitro_ramos) worked out at 1.8. Besides, in experiment [2] (in-vitro_ramos), the “isoTOP-ABPP reactivity profile ratio, Q00535_C157” value is 1.0.
For the compound `O=C(CCl)Nc1ccc(-c2ccccc2)cc1` [compound 52], the “isoTOP-ABPP reactivity profile ratio, P04150_C302” value in experiment [4] (in-vitro_ramos) came out at 1.8. The “isoTOP-ABPP reactivity profile ratio, Q86UV5_C39” value in experiment [3] (in-vitro_ramos_231) was 0.9.
For the compound `C=CC(=O)N1CCC(Cc2ccccc2)CC1` [compound 53], in experiment [1] (in-vitro_ramos_231), the “isoTOP-ABPP reactivity profile ratio, Q9Y5T5_C205” value stood at 1.1. For the same compound, the figures for the “isoTOP-ABPP reactivity profile ratio, Q00535_C157” value in experiment [2] (in-vitro_ramos) and in experiment [2] (in-vitro_ramos_231) were 0.8 and 1.2, respectively.
